Assay results reported in the NIST ThermoML archive (doi:10.1016/j.jct.2013.01.005).
± gives the expanded uncertainty stated by the source.

Test: activity coefficient (dimensionless); of the first substance listed, at infinite dilution; xn = mol fraction of the nth substance listed
Conditions: 101 kPa, Liquid, Chromatography, x1 = 0

| SMILES | activity coefficient (308.15 K) | activity coefficient (318.15 K) | activity coefficient (328.15 K) | activity coefficient (338.15 K) | activity coefficient (348.15 K) | activity coefficient (358.15 K) |
| --- | --- | --- | --- | --- | --- | --- |
| C#CCCCCCC [1-octyne] + CCCCCC[N+]1(C)CCCCC1.O=S(=O)([N-]S(=O)(=O)C(F)(F)F)C(F)(F)F | 3.1 ± 0.21 | 3.14 ± 0.21 | 3.19 ± 0.22 | 3.21 ± 0.22 | 3.24 ± 0.22 | 3.26 ± 0.22 |
| CCCC(C)=O [pentan-2-one] + CCCCC[N+]1(C)CCCCC1.O=S(=O)([N-]S(=O)(=O)C(F)(F)F)C(F)(F)F | – | 0.611 ± 0.043 | 0.629 ± 0.043 | 0.643 ± 0.044 | 0.666 ± 0.045 | 0.682 ± 0.046 |
| c1ccsc1 [thiophene] + CCCCC[N+]1(C)CCCCC1.O=S(=O)([N-]S(=O)(=O)C(F)(F)F)C(F)(F)F | 0.646 ± 0.044 | 0.665 ± 0.045 | 0.673 ± 0.046 | 0.69 ± 0.046 | 0.708 ± 0.047 | 0.722 ± 0.048 |
| CCCCCC [hexane] + CCCCC[N+]1(C)CCCCC1.O=S(=O)([N-]S(=O)(=O)C(F)(F)F)C(F)(F)F | 9.9 ± 0.68 | 9.5 ± 0.65 | 8.9 ± 0.61 | 8.45 ± 0.58 | 8.19 ± 0.56 | 7.92 ± 0.54 |
| CCCC(C)=O [pentan-2-one] + CCCCCC[N+]1(C)CCCCC1.O=S(=O)([N-]S(=O)(=O)C(F)(F)F)C(F)(F)F | 0.573 ± 0.041 | 0.581 ± 0.041 | 0.596 ± 0.042 | 0.613 ± 0.043 | 0.632 ± 0.044 | 0.646 ± 0.044 |
| CCCCCCC [heptane] + CCCCC[N+]1(C)CCCCC1.O=S(=O)([N-]S(=O)(=O)C(F)(F)F)C(F)(F)F | 13.6 ± 0.9 | 12.4 ± 0.8 | 11.8 ± 0.8 | 11.3 ± 0.8 | 10.8 ± 0.7 | 10.4 ± 0.7 |
| Cc1cccc(C)c1 [1,3-dimethylbenzene] + CCCCCC[N+]1(C)CCCCC1.O=S(=O)([N-]S(=O)(=O)C(F)(F)F)C(F)(F)F | 1.14 ± 0.07 | 1.16 ± 0.07 | 1.19 ± 0.08 | 1.23 ± 0.08 | 1.27 ± 0.08 | 1.29 ± 0.08 |
| CCC(C)(C)C [2,2-dimethylbutane] + CCCCC[N+]1(C)CCCCC1.O=S(=O)([N-]S(=O)(=O)C(F)(F)F)C(F)(F)F | – | 7.94 ± 0.54 | 7.7 ± 0.53 | 7.34 ± 0.5 | 7.04 ± 0.48 | 6.86 ± 0.47 |
| CC1CCCCC1 [methylcyclohexane] + CCCCC[N+]1(C)CCCCC1.O=S(=O)([N-]S(=O)(=O)C(F)(F)F)C(F)(F)F | 7.8 ± 0.53 | 7.49 ± 0.51 | 7.16 ± 0.49 | 6.87 ± 0.47 | 6.64 ± 0.45 | 6.42 ± 0.44 |
| c1ccccc1 [benzene] + CCCCC[N+]1(C)CCCCC1.O=S(=O)([N-]S(=O)(=O)C(F)(F)F)C(F)(F)F | 0.696 ± 0.047 | 0.703 ± 0.047 | 0.712 ± 0.047 | 0.721 ± 0.048 | 0.744 ± 0.049 | 0.753 ± 0.05 |
| Cc1ccccc1C [1,2-dimethylbenzene] + CCCCCC[N+]1(C)CCCCC1.O=S(=O)([N-]S(=O)(=O)C(F)(F)F)C(F)(F)F | 1.04 ± 0.07 | 1.08 ± 0.07 | 1.1 ± 0.07 | 1.13 ± 0.07 | 1.16 ± 0.07 | 1.18 ± 0.08 |
| CCCCCO [pentan-1-ol] + CCCCC[N+]1(C)CCCCC1.O=S(=O)([N-]S(=O)(=O)C(F)(F)F)C(F)(F)F | 2.5 ± 0.17 | 2.37 ± 0.16 | 2.2 ± 0.15 | 2.03 ± 0.14 | 1.94 ± 0.13 | 1.79 ± 0.12 |
